The source made the active and inactive calls.
Key:
[1] = target: T1, Orexin/Hypocretin receptor type 1 (Homo sapiens, UniProt O43613); test: (§1) Displacement of [3H]-[…] from human orexin 1 receptor expressed in CHO cells incubated for 2 hrs by whole cell radioligand binding assay; assay type: cell-based
T1 sequence (O43613 whole entry): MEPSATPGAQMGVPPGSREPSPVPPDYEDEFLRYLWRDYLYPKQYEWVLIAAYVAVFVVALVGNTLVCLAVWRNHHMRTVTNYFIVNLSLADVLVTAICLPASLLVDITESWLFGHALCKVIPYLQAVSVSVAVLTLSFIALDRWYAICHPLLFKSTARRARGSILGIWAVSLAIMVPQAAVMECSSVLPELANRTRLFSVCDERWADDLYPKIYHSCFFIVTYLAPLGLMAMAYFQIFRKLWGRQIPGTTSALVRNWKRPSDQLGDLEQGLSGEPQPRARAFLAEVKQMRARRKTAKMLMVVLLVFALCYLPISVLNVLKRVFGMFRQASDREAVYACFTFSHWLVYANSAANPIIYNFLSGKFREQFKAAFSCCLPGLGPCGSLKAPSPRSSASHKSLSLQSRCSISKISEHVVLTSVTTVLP

[2] = target: T2, Orexin receptor type 2 (Homo sapiens) (UniProt O43614); test: Agonist activity at human orexin 2 receptor expressed in CHO cells assessed as increase in calcium mobilization incubated for 120 secs by Fluo-4AM dye based fluorescence assay; assay type: functional, cell-based; conditions: time 120.0 sec
T2 sequence (whole entry): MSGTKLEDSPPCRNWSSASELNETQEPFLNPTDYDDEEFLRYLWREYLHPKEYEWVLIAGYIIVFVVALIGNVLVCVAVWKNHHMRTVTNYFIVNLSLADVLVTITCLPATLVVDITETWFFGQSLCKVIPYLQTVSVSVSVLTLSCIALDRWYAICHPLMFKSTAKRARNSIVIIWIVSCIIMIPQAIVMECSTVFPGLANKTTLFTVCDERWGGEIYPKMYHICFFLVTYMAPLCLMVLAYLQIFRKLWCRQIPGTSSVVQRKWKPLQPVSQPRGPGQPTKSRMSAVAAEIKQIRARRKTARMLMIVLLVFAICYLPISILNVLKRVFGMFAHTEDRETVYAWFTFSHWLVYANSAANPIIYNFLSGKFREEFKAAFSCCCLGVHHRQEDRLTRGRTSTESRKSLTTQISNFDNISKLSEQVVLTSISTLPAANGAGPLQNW

[3] = target: T3, Orexin/Hypocretin receptor type 1 (Homo sapiens) (UniProt O43613); test: as §1; assay type: cell-based
T3 sequence (whole entry): T1 sequence (O43613 whole entry)

Homo sapiens [4] = species: Homo sapiens; test: (§2) Displacement of [3H]-EMPA from human orexin 2 receptor expressed in CHO cells incubated for 2 hrs by whole cell radioligand binding assay; assay type: cell-based
[5] = as §2; assay type: cell-based
[6] = target: T3, Orexin/Hypocretin receptor type 1 (Homo sapiens); conditions: CHO, time 120.0 sec
Description: Agonist activity at human orexin 1 receptor expressed in CHO cells assessed as increase in calcium mobilization incubated for 120 secs by Fluo-4AM dye based fluorescence assay

Homo sapiens [7] = species: Homo sapiens; test: Displacement of [3H]-EMPA from human orexin 2 receptor expressed in CHO cells incubated for 2 hrs by whole cell radioligand binding assay relative to control; assay type: cell-based; design: concentration or dose not given beside the values; conditions: dose or concentration not given here

In the case of `O=C(C1=NN([C@H]2CCS(=O)(=O)C2)C(=O)CC1)N(CCc1ccccc1)c1nc2ccccc2s1`, the IC50 [1] is reported as over 100 µM and the pEC50 [2] is reported as “inactive”.

With `O=C(c1ccccc1Cc1ccccc1)N1CCN(Cc2csc(-c3ccco3)n2)CC1` the Ki [1] was 14.8 µM and the pEC50 [2] was “inactive”.

For `O=C(COc1ccc(-c2ccccc2)cc1)c1ccc(O)cc1O`, the pKi [3] was “inactive”, the pKi (Homo sapiens [4]) was “inactive” and the pEC50 [2] was “inactive”.

With `O=C1NC(=O)C(=Cc2c(OCc3ccccc3F)ccc3ccccc23)C(=O)N1` the pEC50 [2] was “inactive”.

In the case of `Cc1ccccc1CN(C)C(=O)Cc1csc(-c2cccc(F)c2)n1`, the Ki [1] is reported as 3.24 µM, the pKi [5] is reported as 6.18 and the pEC50 [2] is reported as “inactive”. For the same molecule, the pEC50 [6] was “inactive”.

Molecule `Cc1ccc(C(=O)[C@H](C)Oc2cccc(N3C(=O)[C@H]4[C@H](C)C=CC[C@@H]4C3=O)c2)cc1` has a Ki [1] of 7.76 µM, an inhibition (Homo sapiens [7]) of 49.9% and a pKi [5] of 4.97.

In the case of `Cc1ccc(-c2nc(CC(=O)N(C)[C@@H](C)c3ccc(F)cc3)cs2)o1`, the Ki [1] is reported as 17 µM, the pKi [5] is reported as 5.53 and the pEC50 [2] is reported as “inactive”. The pEC50 [6] was “inactive”.

Work on `Cc1nc2cc(F)cc(C(=O)NCCOc3ccc4ccccc4c3)c2nc1C` yielded an inhibition (Homo sapiens [7]) of 61.7% and a pKi [5] of 5.83.

With `Cc1ccccc1OC[C@@H]1CCCN(C(=O)CCc2nc(-c3ccccn3)no2)C1` the Ki [1] was 15.1 µM and the pEC50 [2] was “inactive”.

With `Cc1ccc(Oc2ncccc2NC(=O)c2ccc3c(c2)OCCCO3)c2c1CCC2` the Ki [1] was 5.13 µM, the inhibition (Homo sapiens [7]) was 67.1% and the pKi [5] was 5.19.

With `O=C(OCC(=O)N1N=C(c2ccc(Cl)cc2)C[C@H]1c1ccco1)c1ccc(-n2cccn2)nc1` the pKi [3] was “inactive” and the pKi (Homo sapiens [4]) was “inactive”.

With `O=C(OCCCn1c(=O)[nH]c2ccccc21)c1ccc2c(c1)C(=O)N(c1ccc(Cl)cc1)C2=O` the pKi [3] was “inactive” and the pKi (Homo sapiens [4]) was “inactive”.

With `O=C(c1ccc(N2C(=O)CCC2=O)cc1)N1CCN(Cc2nc(C3CC3)cs2)CC1` the pKi [3] was “inactive” and the pKi (Homo sapiens [4]) was “inactive”.

With `CCOC(=O)c1cc(C(=O)N[C@@H](C)c2ccccc2)c(C)[nH]c1=O` the pKi [3] was “inactive” and the pKi (Homo sapiens [4]) was “inactive”.

For `COc1cc2cc(C(=O)N3CCN(Cc4ccc5c(c4)OCO5)CC3)c(=O)oc2cc1OC`, the pKi [3] was “inactive” and the pKi (Homo sapiens [4]) was “inactive”.

For `Cc1cc(C(C)(C)C)cc(C)c1Cn1cnc2c1c(=O)n(C)c(=O)n2C`, the pKi [3] was “inactive” and the pKi (Homo sapiens [4]) was “inactive”.

With `O=C1c2ccc([N+](=O)[O-])cc2C(=O)N1c1cccc(-c2nc3ccccc3c(=O)o2)c1` the pKi [3] was “inactive” and the pKi (Homo sapiens [4]) was “inactive”.

In the case of `O=C(c1sc2cccc(F)c2c1Cl)N1CCN(Cc2ccco2)CC1`, the pEC50 [2] is reported as “inactive”.

With `Cc1cccc(-n2cc(C(=O)N3CCC[C@@H]([n+]4cc[nH]c4)C3)nn2)c1` the pKi [3] was “inactive” and the pKi (Homo sapiens [4]) was “inactive”.

For `O=C(CCc1nc(-c2ccccn2)no1)OCc1ccccn1`, the pKi [3] was “inactive” and the pKi (Homo sapiens [4]) was “inactive”.

For `Cc1ccc(-c2nc(CC(=O)N(C)Cc3c(F)cccc3Cl)cs2)o1`, the Ki [1] was 11.7 µM, the pKi [5] was 5.55 and the pEC50 [2] was “inactive”. The pEC50 [6] was “inactive”.

For `O=C(c1ccc(-c2nc3ccccc3s2)o1)N(Cc1ccco1)Cc1ccco1`, the Ki [1] was 3.55 µM, the pKi [5] was 5.5 and the pEC50 [2] was “inactive”. For the same molecule, the pEC50 [6] was “inactive”.

Work on `O=C(Nc1cccc(/C=C/c2ccccn2)c1)c1occc1COc1ccccc1` yielded a Ki [1] of 7.94 µM, an inhibition (Homo sapiens [7]) of 39.9% and a pKi [5] of 4.98.

For `O=C(CCCN1C(=O)c2cccc3cccc(c23)C1=O)Oc1ccc(F)cc1`, the pKi [3] was “inactive” and the pKi (Homo sapiens [4]) was “inactive”.

For `Cc1noc(CN2CCN(C(=O)c3cc4ccccn4c3)CC2)n1`, the pKi [3] was “inactive” and the pKi (Homo sapiens [4]) was “inactive”.

In the case of `Cc1ccc2[nH]c(C)c(CC(=O)N(Cc3cccnc3)C3CC3)c2c1`, the pEC50 [2] is reported as “inactive” and the pEC50 [6] is reported as “inactive”.

`Cc1ccc(CSCc2ccc(-c3nc(-c4ccccn4)no3)o2)cc1` gave a Ki [1] of 15.5 µM, an inhibition (Homo sapiens [7]) of 79.2% and a pKi [5] of 5.07. For the same molecule, the pEC50 [2] was “inactive”.

In the case of `C[C@H](Sc1nc(-c2ccco2)nc2ccccc12)C(=O)N1CCc2ccccc2C1`, the Ki [1] is reported as 8.91 µM, the pKi [5] is reported as 5.5 and the pEC50 [2] is reported as “inactive”. The pEC50 [6] was “inactive”.

In the case of `COc1ccc([C@H]2CCCN2C(=O)c2ccc(OCc3cn4ccccc4n3)cc2)c(OC)c1`, the Ki [1] is reported as 20.9 µM and the pEC50 [2] is reported as “inactive”.

For `Cc1[nH]c2ccccc2c1[C@@H]1c2ccccc2C(=O)N1CCC(=O)N1CCN(c2ccccn2)CC1`, the IC50 [1] was over 100 µM and the pEC50 [2] was “inactive”.

`C[C@@H](Oc1ccc2c(c1)oc(=O)c1ccccc12)C(=O)c1ccccc1` gave a Ki [1] of 5.37 µM, an inhibition (Homo sapiens [7]) of 63.7% and a pKi [5] of 5.27. For the same molecule, the pEC50 [2] was “inactive” and the pEC50 [6] was “inactive”.

With `Cc1ccc(N2CCCN(C(=O)c3cn(C)c4ccccc34)CC2)nn1` the IC50 [1] was over 100 µM and the pEC50 [2] was “inactive”.

With `COc1cc([C@H]2c3c(oc4ccccc4c3=O)C(=O)N2Cc2ccc(F)cc2)cc(OC)c1OC` the pKi [3] was “inactive” and the pKi (Homo sapiens [4]) was “inactive”.

With `COc1ccc(CN2C(=O)c3ccccc3C2=O)cc1C(=O)OCc1cc(=O)n2ccsc2n1` the pKi [3] was “inactive” and the pKi (Homo sapiens [4]) was “inactive”.

With `O=C(c1ccc(Cl)c(N2CCCC2=O)c1)N1CCN(Cc2ccc3c(c2)CCO3)CC1` the pKi [3] was “inactive” and the pKi (Homo sapiens [4]) was “inactive”.

In the case of `COc1cccc([C@H]2c3c(oc4ccccc4c3=O)C(=O)N2Cc2ccccc2)c1`, the pKi [3] is reported as “inactive” and the pKi (Homo sapiens [4]) is reported as “inactive”.

With `CS(=O)(=O)N1CCc2cc(S(=O)(=O)N3CCN(Cc4ccc5c(c4)OCO5)CC3)ccc21` the pKi [3] was “inactive” and the pKi (Homo sapiens [4]) was “inactive”.

For `O=C(c1cn(Cc2ccc(F)cc2)cc2c(=O)n(-c3ccccc3)nc1-2)N1CCc2ccccc21`, the pKi [3] was “inactive” and the pKi (Homo sapiens [4]) was “inactive”.

In the case of `CCc1cc2c(=O)c(-c3ccc4c(c3)OCCCO4)coc2cc1OC(=O)N1CCOCC1`, the pKi [3] is reported as “inactive” and the pKi (Homo sapiens [4]) is reported as “inactive”.

With `Nc1cc(-c2ncccc2C(=O)N2C[C@H]3CC[C@@H]2C3)c2cc[nH]c2n1` the pKi [3] was “inactive” and the pKi (Homo sapiens [4]) was “inactive”.

For `COc1ccc(-n2nc(C(=O)NCCc3ccc(Cl)cc3)c3c4ccccc4n(C)c3c2=O)cc1`, the pKi [3] was “inactive” and the pKi (Homo sapiens [4]) was “inactive”.

In the case of `O=C(Oc1cccc2c(OC(=O)c3ccco3)cccc12)c1ccco1`, the pKi [3] is reported as “inactive” and the pKi (Homo sapiens [4]) is reported as “inactive”.

With `COc1cccc(COc2ccc(-c3noc(-c4ccco4)n3)cc2OC)c1` the pKi [3] was “inactive” and the pKi (Homo sapiens [4]) was “inactive”.

For `O=C(c1ccc(Cl)c(N2CCCC2=O)c1)N1CCN(Cc2cc(=O)n3ccsc3n2)CC1`, the pKi [3] was “inactive” and the pKi (Homo sapiens [4]) was “inactive”.

For `Cc1nn(-c2ccccc2)c(C)c1C(=O)O[C@@H](C(N)=O)c1ccccc1`, the pKi [3] was “inactive” and the pKi (Homo sapiens [4]) was “inactive”.

For `N[C@H]1CCCN(C(=O)c2cc(-c3ccccc3)nc3ccccc23)CC1`, the pKi [3] was “inactive” and the pKi (Homo sapiens [4]) was “inactive”.

Reference: ChEMBL document CHEMBL4725416, “Structure-Based Discovery of Novel Ligands for the Orexin 2 Receptor” (J Med Chem, 2020)
